According to BindingDB's records for doi:10.1016/s0960-894x(01)00765-x (Bristol Myers Squibb, 2002):

Target: T1, Neuropeptide Y receptor type 1 (Homo sapiens, UniProt P25929)
T1 sequence (P25929 whole entry): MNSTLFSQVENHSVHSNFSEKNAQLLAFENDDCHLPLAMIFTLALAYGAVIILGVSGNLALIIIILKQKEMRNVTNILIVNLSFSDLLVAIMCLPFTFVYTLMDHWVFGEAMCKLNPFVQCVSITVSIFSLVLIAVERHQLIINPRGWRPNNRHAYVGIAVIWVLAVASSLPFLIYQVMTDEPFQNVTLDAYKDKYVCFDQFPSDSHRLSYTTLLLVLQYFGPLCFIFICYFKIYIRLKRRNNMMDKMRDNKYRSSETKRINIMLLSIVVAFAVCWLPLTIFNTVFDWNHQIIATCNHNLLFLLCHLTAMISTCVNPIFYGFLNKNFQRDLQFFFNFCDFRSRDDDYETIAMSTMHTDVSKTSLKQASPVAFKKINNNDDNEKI
Assay: ChEBML_143683
Source text: Binding affinity against Neuropeptide Y receptor type 1 using I-PYY as a radioligand in human neuroblastoma SK-N-MC cells

COC(=O)C1=C(C)N=C(C)C(C(=O)OC)N1c1cccc(NC(=S)NCCCN2CCN(C3CCCCC3)CC2)c1 (configuration not stated) [1-(3-{3-[3-(4-Cyclohexyl-piperazin-1-yl)-propyl]-thioureido}-phenyl)-3,5-dimethyl-1,4-dihydro-pyrazine-2,6-dicarboxylic acid dimethyl ester]
IC50: > 1 µM

COC(=O)C1=C(C)N=C(C)C(C(=O)OC)N1c1cccc(NC(=S)NCCCN2CCC(C(C)(C)C)CC2)c1 (configuration not stated) [1-(3-{3-[3-(4-tert-Butyl-piperidin-1-yl)-propyl]-thioureido}-phenyl)-3,5-dimethyl-1,4-dihydro-pyrazine-2,6-dicarboxylic acid dimethyl ester]
IC50: > 1 µM
